The supplement of paper PMC10627819

Legend:
B. subtilis 168 [1] = assay: fitness (endpoint OD595 vs no drug) (fraction); higher = more growth
Summary of the method: (§1)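 Fitness compares growth at the stationary-phase transition with the robust mean of no-drug control wells, as a ratio of optical densities. The ratio is capped at 1. Wells of 384-well plates held 30 µl, or 55 µl for S. pneumoniae, inoculated at OD595 0.01. Readings at OD595 every 30 min for 14 h at 37 °C were corrected against the first reading.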

S. pneumoniae D39V [2] = assay: as above
Summary of the method: as §1

B. subtilis 168 [3] = assay: Bliss interaction score (quartile over a dose matrix) (fitness difference); higher = more antagonism (negative = synergy)
Summary of the method: (§2)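 The Bliss score is observed minus expected fitness under the product model, reported as quartiles over technical, biological and donor/recipient replicates. Fitness is the OD595 at entry into stationary phase divided by the plate's robust no-drug mean and capped at 1. Single-drug fitness was inferred from combination data.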

S. aureus DSM 20231 = assay: as above
Summary of the method: as §2

S. aureus Newman = assay: as above
Summary of the method: as §2

S. pneumoniae D39V [4] = assay: as above
Summary of the method: as §2
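For Bliss interaction score (quartile over a dose matrix) in this document: first quartile when negative (synergy) and third quartile when positive (antagonism).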

CCC[C@@H]1C[C@@H](C(=O)N[C@@H]([C@H]2O[C@H](SC)[C@H](O)[C@@H](O)[C@H]2O)[C@@H](C)O)N(C)C1 [Lincomycin] + CN[C@@H]1[C@H](O[C@H]2[C@H](O[C@H]3[C@H](O)[C@@H](O)[C@H](N=C(N)N)[C@@H](O)[C@@H]3N=C(N)N)O[C@@H](C)[C@]2(O)C=O)O[C@@H](CO)[C@H](O)[C@H]1O [Streptomycin]
fitness
Details | first compound 0.1 µg/mL | first compound 0.2 µg/mL | first compound 0.215 µg/mL | first compound 0.4 µg/mL | first compound 0.43 µg/mL | first compound 0.8 µg/mL | first compound 0.86 µg/mL
B. subtilis 168 [1], partner 2 µg/mL | 0.935 | 0.913 | – | 0.9 | – | – | –
B. subtilis 168 [1], partner 8 µg/mL | – | – | – | 0.0442 | – | – | –
S. pneumoniae D39V [2], partner 2 µg/mL | – | – | 0.768 | – | 0.681 | – | 0.231
S. pneumoniae D39V [2], partner 4 µg/mL | – | 0.699 | 0.784 | 0.627 | 0.686 | 0.305 | 0.284
S. pneumoniae D39V [2], partner 8 µg/mL | – | 0.588 | 0.796 | 0.539 | 0.667 | 0.203 | 0.195

fitness, S. pneumoniae D39V [2], one replicate
Details | first compound 0.2 µg/mL | first compound 0.4 µg/mL | first compound 0.8 µg/mL
partner 2 µg/mL | 0.759 | 0.7 | 0.421
partner 16 µg/mL | 0.509 | 0.369 | 0.0724

Details | Bliss interaction score
B. subtilis 168 [3] | 0.105
S. aureus DSM 20231 | -0.107
S. aureus Newman | 0.0761
S. pneumoniae D39V [4] | -0.129

O=C(O[C@@H]1Cc2c(O)cc(O)cc2O[C@@H]1c1cc(O)c(O)c(O)c1)c1cc(O)c(O)c(O)c1 [EGCG] + CN(C)C(=O)C(CCN1CCC(O)(c2ccc(Cl)cc2)CC1)(c1ccccc1)c1ccccc1 [Loperamide]
fitness
Details | first compound 6.25 µg/mL | first compound 12.5 µg/mL | first compound 25 µg/mL | first compound 50 µg/mL
B. subtilis 168 [1], partner 25 µg/mL | – | – | 0.0734 | –
B. subtilis 168 [1], partner 50 µg/mL | – | 0.0521 | 0.0237 | –
B. subtilis 168 [1], partner 100 µg/mL | 0.0302 | 0.0337 | 0.0599 | –
S. pneumoniae D39V [2], partner 17.14 µg/mL | – | 0.91 | 0.921 | 0.965
S. pneumoniae D39V [2], partner 20 µg/mL | – | 0.988 | ≥ 1 | 0.991
S. pneumoniae D39V [2], partner 34.28 µg/mL | – | 0.895 | 0.982 | 0.992
S. pneumoniae D39V [2], partner 40 µg/mL | – | 0.984 | ≥ 1 | ≥ 1

S. pneumoniae D39V [2], partner 68.57 µg/mL, one replicate
Details | fitness
first compound 12.5 µg/mL | 0.491
first compound 25 µg/mL | 0.958
first compound 50 µg/mL | 0.891

Details | Bliss interaction score
B. subtilis 168 [3] | -0.097
S. aureus DSM 20231 | 0.183
S. aureus Newman | -0.0758
S. pneumoniae D39V [4] | 0.0701

CCC[C@@H]1C[C@@H](C(=O)N[C@@H]([C@H]2O[C@H](SC)[C@H](O)[C@@H](O)[C@H]2O)[C@H](C)Cl)N(C)C1 [Clindamycin] + C[C@H]1COc2c(N3CCN(C)CC3)c(F)cc3c(=O)c(C(=O)O)cn1c23 [Levofloxacin]
fitness, B. subtilis 168 [1], one replicate
Details | first compound 0.0039 µg/mL | first compound 0.0078 µg/mL | first compound 0.0156 µg/mL | first compound 0.0625 µg/mL | first compound 0.125 µg/mL | first compound 0.25 µg/mL
partner 0.001 µg/mL | – | – | – | 0.715 | 0.554 | 0.391
partner 0.002 µg/mL | 0.97 | 0.86 | 0.833 | 0.558 | 0.442 | 0.338
partner 0.0039 µg/mL | 0.968 | 0.872 | 0.816 | 0.648 | 0.511 | 0.389
partner 0.0078 µg/mL | 0.967 | 0.854 | 0.815 | – | – | –

Details | fitness
B. subtilis 168 [1], first compound 0.0625 µg/mL, partner 0.0312 µg/mL | 0.041
B. subtilis 168 [1], first compound 0.0625 µg/mL, partner 0.0625 µg/mL | 0.038
B. subtilis 168 [1], first compound 0.0625 µg/mL, partner 0.125 µg/mL | 0.0416
B. subtilis 168 [1], first compound 0.125 µg/mL, partner 0.0312 µg/mL | 0.0414
B. subtilis 168 [1], first compound 0.125 µg/mL, partner 0.0625 µg/mL | 0.0486
B. subtilis 168 [1], first compound 0.125 µg/mL, partner 0.125 µg/mL | 0.0468
B. subtilis 168 [1], first compound 0.25 µg/mL, partner 0.0312 µg/mL | 0.0473
B. subtilis 168 [1], first compound 0.25 µg/mL, partner 0.0625 µg/mL | 0.0532
B. subtilis 168 [1], first compound 0.25 µg/mL, partner 0.125 µg/mL | 0.0518
S. pneumoniae D39V [2], first compound 0.0125 µg/mL, partner 0.2 µg/mL | 0.759
S. pneumoniae D39V [2], first compound 0.0125 µg/mL, partner 0.4 µg/mL | 0.736
S. pneumoniae D39V [2], first compound 0.0125 µg/mL, partner 0.8 µg/mL | 0.605
S. pneumoniae D39V [2], first compound 0.015 µg/mL, partner 0.1725 µg/mL | 0.909
S. pneumoniae D39V [2], first compound 0.015 µg/mL, partner 0.345 µg/mL | 0.865
S. pneumoniae D39V [2], first compound 0.015 µg/mL, partner 0.69 µg/mL | 0.595
S. pneumoniae D39V [2], first compound 0.025 µg/mL, partner 0.2 µg/mL | 0.478
S. pneumoniae D39V [2], first compound 0.025 µg/mL, partner 0.4 µg/mL | 0.47
S. pneumoniae D39V [2], first compound 0.025 µg/mL, partner 0.8 µg/mL | 0.39
S. pneumoniae D39V [2], first compound 0.03 µg/mL, partner 0.1725 µg/mL | 0.822
S. pneumoniae D39V [2], first compound 0.03 µg/mL, partner 0.345 µg/mL | 0.759
S. pneumoniae D39V [2], first compound 0.03 µg/mL, partner 0.69 µg/mL | 0.546
S. pneumoniae D39V [2], first compound 0.05 µg/mL, partner 0.2 µg/mL | 0.235
S. pneumoniae D39V [2], first compound 0.05 µg/mL, partner 0.4 µg/mL | 0.189
S. pneumoniae D39V [2], first compound 0.05 µg/mL, partner 0.8 µg/mL | 0.15
S. pneumoniae D39V [2], first compound 0.06 µg/mL, partner 0.1725 µg/mL | 0.631
S. pneumoniae D39V [2], first compound 0.06 µg/mL, partner 0.345 µg/mL | 0.601
S. pneumoniae D39V [2], first compound 0.06 µg/mL, partner 0.69 µg/mL | 0.399

Details | Bliss interaction score
B. subtilis 168 [3] | 0.0326
S. aureus DSM 20231 | 0.0785
S. aureus Newman | 0.0891
S. pneumoniae D39V [4] | 0.0885

CCC[C@@H]1C[C@@H](C(=O)N[C@@H]([C@H]2O[C@H](SC)[C@H](O)[C@@H](O)[C@H]2O)[C@@H](C)O)N(C)C1 [Lincomycin] + CN(C)C(=O)C(CCN1CCC(O)(c2ccc(Cl)cc2)CC1)(c1ccccc1)c1ccccc1 [Loperamide]
Details | fitness
B. subtilis 168 [1], first compound 0.1 µg/mL, partner 100 µg/mL | 0.0294
B. subtilis 168 [1], first compound 0.2 µg/mL, partner 100 µg/mL | 0.0794
B. subtilis 168 [1], first compound 0.4 µg/mL, partner 100 µg/mL | 0.0368
S. pneumoniae D39V [2], first compound 0.2 µg/mL, partner 17.14 µg/mL | 0.799
S. pneumoniae D39V [2], first compound 0.2 µg/mL, partner 34.28 µg/mL | 0.811
S. pneumoniae D39V [2], first compound 0.215 µg/mL, partner 20 µg/mL | 0.902
S. pneumoniae D39V [2], first compound 0.215 µg/mL, partner 40 µg/mL | 0.911
S. pneumoniae D39V [2], first compound 0.215 µg/mL, partner 80 µg/mL | 0.897
S. pneumoniae D39V [2], first compound 0.4 µg/mL, partner 17.14 µg/mL | 0.725
S. pneumoniae D39V [2], first compound 0.4 µg/mL, partner 34.28 µg/mL | 0.685
S. pneumoniae D39V [2], first compound 0.43 µg/mL, partner 20 µg/mL | 0.827
S. pneumoniae D39V [2], first compound 0.43 µg/mL, partner 40 µg/mL | 0.83
S. pneumoniae D39V [2], first compound 0.43 µg/mL, partner 80 µg/mL | 0.809
S. pneumoniae D39V [2], first compound 0.8 µg/mL, partner 17.14 µg/mL | 0.535
S. pneumoniae D39V [2], first compound 0.8 µg/mL, partner 34.28 µg/mL | 0.44
S. pneumoniae D39V [2], first compound 0.86 µg/mL, partner 20 µg/mL | 0.599
S. pneumoniae D39V [2], first compound 0.86 µg/mL, partner 40 µg/mL | 0.632
S. pneumoniae D39V [2], first compound 0.86 µg/mL, partner 80 µg/mL | 0.525

S. pneumoniae D39V [2], partner 68.57 µg/mL, one replicate
Details | fitness
first compound 0.2 µg/mL | 0.87
first compound 0.4 µg/mL | 0.769
first compound 0.8 µg/mL | 0.54

Details | Bliss interaction score
B. subtilis 168 [3] | -0.175
S. aureus DSM 20231 | -0.058
S. aureus Newman | -0.0788
S. pneumoniae D39V [4] | 0.187
